Laboratory results published in ChEMBL document CHEMBL3885881, “DrugMatrix”.
Values joined by “and” are separate entries in the source; they are usually repeats but may differ in a detail not shown here. Equal entries are not always repeated.

Species on record: Rattus norvegicus
Assay: DrugMatrix - Regimen: Daily Repeat
Format: toxicity, organism-based, Sprague-Dawley
Set-up: regimen Daily Repeat, gender Male, age 6-8 weeks
Settings: in vivo, po, route oral GAVAGE, vehicle 100 % WATER; for ABSOLUTE SEGMENTED NEUTROPHIL / BASOPHIL / EOSINOPHIL / ERYTHROCYTE COUNT / HEMATOCRIT / HEMOGLOBIN / LEUKOCYTE COUNT / LYMPHOCYTE / MEAN CORPUSCULAR HEMOGLOBIN / MEAN CORPUSCULAR HEMOGLOBIN CONCENTRATION / MEAN CORPUSCULAR VOLUME / MONOCYTE / NEUTROPHIL / NUCLEATED RED BLOOD CELLS / PLATELET COUNT / ABSOLUTE BASOPHIL / ABSOLUTE EOSINOPHIL / ABSOLUTE LYMPHOCYTE / ABSOLUTE MONOCYTE: tissue Blood; for ALANINE AMINOTRANSFERASE / ALBUMIN / ALKALINE PHOSPHATASE / ASPARTATE AMINOTRANSFERASE / BLOOD UREA NITROGEN / CARBON DIOXIDE / CHLORIDE / CHOLESTEROL / CREATINE PHOSPHOKINASE / CREATININE / GLUCOSE / LACTATE DEHYDROGENASE / LIPASE / PHOSPHORUS / POTASSIUM / SODIUM / TOTAL BILIRUBIN / TOTAL PROTEIN / URIC ACID: tissue Plasma
[1] = 0 mg/kg, 72 h, dose level Control, time 3 day
[2] = 0 mg/kg, 120 h, dose level Control, time 5 day
[3] = 0 mg/kg, […], dose level Control, time 14 day
[4] = 120 mg/kg, 72 h, dose level High, time 3 day
[5] = 120 mg/kg, 120 h, dose level High, time 5 day

COCCc1ccc(OCC(O)CNC(C)C)cc1 (centres undefined) [METOPROLOL]
ABSOLUTE SEGMENTED NEUTROPHIL [1]: 1139.67 CELLS/uL
BASOPHIL [1]: 1.07% and 0%
EOSINOPHIL [1]: 1.03% and 0.83%
ERYTHROCYTE COUNT [1]: 5.88 x10E6/uL and 5.54 x10E6/uL
HEMATOCRIT [1]: 38.37% and 35.35%
HEMOGLOBIN [1]: 12.5 G/DL and 13.22 G/DL
LEUKOCYTE COUNT [1]: 11.61 x10E3/uL and 12 x10E3/uL
LYMPHOCYTE [1]: 74.4% and 89%
MEAN CORPUSCULAR HEMOGLOBIN [1]: 21.23 pg and 23.88 pg
MEAN CORPUSCULAR HEMOGLOBIN CONCENTRATION [1]: 32.5 G/DL and 37.4 G/DL
MEAN CORPUSCULAR VOLUME [1]: 65.47 fL and 63.85 fL
MONOCYTE [1]: 2.73% and 1%
NEUTROPHIL [1]: 20.17% and 9.17%
NUCLEATED RED BLOOD CELLS [1]: 0 /100WBC
PLATELET COUNT [1]: 1067 x10E3/uL and 1333.33 x10E3/uL
ALANINE AMINOTRANSFERASE [1]: 35.33 u/L and 53.17 u/L
ALBUMIN [1]: 3.83 G/DL and 4.32 G/DL
ALKALINE PHOSPHATASE [1]: 469.67 u/L and 404.33 u/L
ASPARTATE AMINOTRANSFERASE [1]: 65.33 u/L and 83.17 u/L
BLOOD UREA NITROGEN [1]: 16.33 mg/dL and 15.67 mg/dL
CARBON DIOXIDE [1]: 44.67 mmol/L and 27.33 mmol/L
CHLORIDE [1]: 102 MEQ/L and 101.83 MEQ/L
CHOLESTEROL [1]: 71.33 mg/dL and 68.67 mg/dL
CREATINE PHOSPHOKINASE [1]: 256.67 u/L and 276.17 u/L
CREATININE [1]: 0.4 mg/dL and 0.18 mg/dL
GLUCOSE [1]: 165 mg/dL and 163.5 mg/dL
LACTATE DEHYDROGENASE [1]: 114.33 u/L and 144.67 u/L
LIPASE [1]: 16 u/L and 8.83 u/L
PHOSPHORUS [1]: 10.7 mg/dL and 11.72 mg/dL
POTASSIUM [1]: 6.87 MEQ/L and 5.99 MEQ/L
SODIUM [1]: 143 MEQ/L and 143.57 MEQ/L
TOTAL BILIRUBIN [1]: 0.4 mg/dL and 0.2 mg/dL
TOTAL PROTEIN [1]: 6.37 G/DL and 6.1 G/DL
URIC ACID [1]: 0.87 mg/dL and 1.38 mg/dL
ABSOLUTE SEGMENTED NEUTROPHIL [2]: 1137.17 CELLS/uL
BASOPHIL [2]: 0.57% and 0%
EOSINOPHIL [2]: 1.33% and 1.67%
ERYTHROCYTE COUNT [2]: 6.38 x10E6/uL and 5.82 x10E6/uL
HEMATOCRIT [2]: 42.13% and 36.35%
HEMOGLOBIN [2]: 13.6 G/DL and 13.58 G/DL
LEUKOCYTE COUNT [2]: 13.38 x10E3/uL and 14.38 x10E3/uL
LYMPHOCYTE [2]: 81.03% and 90.5%
MEAN CORPUSCULAR HEMOGLOBIN [2]: 21.27 pg and 23.32 pg
MEAN CORPUSCULAR HEMOGLOBIN CONCENTRATION [2]: 32.27 G/DL and 37.42 G/DL
MEAN CORPUSCULAR VOLUME [2]: 66 fL and 62.42 fL
MONOCYTE [2]: 2% and 0.17%
NEUTROPHIL [2]: 14.33% and 7.67%
NUCLEATED RED BLOOD CELLS [2]: 0 /100WBC
PLATELET COUNT [2]: 1279.33 x10E3/uL and 1337.67 x10E3/uL
ALANINE AMINOTRANSFERASE [2]: 29 u/L and 48.5 u/L
ALBUMIN [2]: 3.8 G/DL and 4.32 G/DL
ALKALINE PHOSPHATASE [2]: 440.33 u/L and 354.33 u/L
ASPARTATE AMINOTRANSFERASE [2]: 61.33 u/L and 80 u/L
BLOOD UREA NITROGEN [2]: 15.67 mg/dL and 16 mg/dL
CARBON DIOXIDE [2]: 44.67 mmol/L and 27.33 mmol/L
CHLORIDE [2]: 102 MEQ/L and 100.33 MEQ/L
CHOLESTEROL [2]: 59.67 mg/dL and 68 mg/dL
CREATINE PHOSPHOKINASE [2]: 184.33 u/L and 325.17 u/L
CREATININE [2]: 0.3 mg/dL and 0.23 mg/dL
GLUCOSE [2]: 180 mg/dL and 172 mg/dL
LACTATE DEHYDROGENASE [2]: 88.33 u/L and 254.83 u/L
LIPASE [2]: 8 u/L and 8.33 u/L
PHOSPHORUS [2]: 10.73 mg/dL and 12.17 mg/dL
POTASSIUM [2]: 6.5 MEQ/L and 6.28 MEQ/L
SODIUM [2]: 145.67 MEQ/L and 143.57 MEQ/L
TOTAL BILIRUBIN [2]: 0.3 mg/dL and 0.18 mg/dL
TOTAL PROTEIN [2]: 6.3 G/DL and 6.12 G/DL
URIC ACID [2]: 0.8 mg/dL and 1.78 mg/dL
ABSOLUTE BASOPHIL [3]: 130 cells/µL
ABSOLUTE EOSINOPHIL [3]: 60 cells/µL
ABSOLUTE LYMPHOCYTE [3]: 9510 cells/µL
ABSOLUTE MONOCYTE [3]: 270 cells/µL
BASOPHIL [3]: 0.93%
EOSINOPHIL [3]: 0.5%
ERYTHROCYTE COUNT [3]: 7.2 x10E6/uL
HEMATOCRIT [3]: 43.27%
HEMOGLOBIN [3]: 14.73 G/DL
LEUKOCYTE COUNT [3]: 12.58 x10E3/uL
LYMPHOCYTE [3]: 75.5%
MEAN CORPUSCULAR HEMOGLOBIN [3]: 20.5 pg
MEAN CORPUSCULAR HEMOGLOBIN CONCENTRATION [3]: 34.07 G/DL
MEAN CORPUSCULAR VOLUME [3]: 60.1 fL
MONOCYTE [3]: 1.33%
NEUTROPHIL [3]: 20.5%
PLATELET COUNT [3]: 1162 x10E3/uL
ALANINE AMINOTRANSFERASE [3]: 25.33 u/L
ALBUMIN [3]: 3.87 G/DL
ALKALINE PHOSPHATASE [3]: 321.67 u/L
ASPARTATE AMINOTRANSFERASE [3]: 60.33 u/L
BLOOD UREA NITROGEN [3]: 13.33 mg/dL
CARBON DIOXIDE [3]: 45 mmol/L
CHLORIDE [3]: 104.67 MEQ/L
CHOLESTEROL [3]: 72.33 mg/dL
CREATINE PHOSPHOKINASE [3]: 213.33 u/L
CREATININE [3]: 0.3 mg/dL
GLUCOSE [3]: 164 mg/dL
LACTATE DEHYDROGENASE [3]: 84.33 u/L
LIPASE [3]: 18.33 u/L
PHOSPHORUS [3]: 10.23 mg/dL
POTASSIUM [3]: 6.17 MEQ/L
SODIUM [3]: 144 MEQ/L
TOTAL BILIRUBIN [3]: 0.37 mg/dL
TOTAL PROTEIN [3]: 6.43 G/DL
URIC ACID [3]: 0.0667 mg/dL
ABSOLUTE BASOPHIL [4]: 76.7 cells/µL
ABSOLUTE EOSINOPHIL [4]: 230 cells/µL
ABSOLUTE LYMPHOCYTE [4]: 5150 cells/µL
ABSOLUTE MONOCYTE [4]: 220 cells/µL
BASOPHIL [4]: 1.03%
EOSINOPHIL [4]: 3.13%
ERYTHROCYTE COUNT [4]: 6.58 x10E6/uL
HEMATOCRIT [4]: 42.5%
HEMOGLOBIN [4]: 14.4 G/DL
LEUKOCYTE COUNT [4]: 7.41 x10E3/uL
LYMPHOCYTE [4]: 69.3%
MEAN CORPUSCULAR HEMOGLOBIN [4]: 21.87 pg
MEAN CORPUSCULAR HEMOGLOBIN CONCENTRATION [4]: 33.8 G/DL
MEAN CORPUSCULAR VOLUME [4]: 64.63 fL
MONOCYTE [4]: 2.97%
NEUTROPHIL [4]: 23.23%
PLATELET COUNT [4]: 1007 x10E3/uL
ALANINE AMINOTRANSFERASE [4]: 35 u/L
ALBUMIN [4]: 3.7 G/DL
ALKALINE PHOSPHATASE [4]: 368.67 u/L
ASPARTATE AMINOTRANSFERASE [4]: 69.33 u/L
BLOOD UREA NITROGEN [4]: 16.67 mg/dL
CARBON DIOXIDE [4]: 34.67 mmol/L
CHLORIDE [4]: 104 MEQ/L
CHOLESTEROL [4]: 74.33 mg/dL
CREATINE PHOSPHOKINASE [4]: 338.33 u/L
CREATININE [4]: 0.47 mg/dL
GLUCOSE [4]: 161.33 mg/dL
LACTATE DEHYDROGENASE [4]: 274.33 u/L
LIPASE [4]: 13 u/L
PHOSPHORUS [4]: 11.6 mg/dL
POTASSIUM [4]: 6.57 MEQ/L
SODIUM [4]: 142.67 MEQ/L
TOTAL BILIRUBIN [4]: 0.37 mg/dL
TOTAL PROTEIN [4]: 6.03 G/DL
URIC ACID [4]: 0.97 mg/dL
ABSOLUTE BASOPHIL [5]: 66.7 cells/µL
ABSOLUTE EOSINOPHIL [5]: 380 cells/µL
ABSOLUTE LYMPHOCYTE [5]: 7010 cells/µL
ABSOLUTE MONOCYTE [5]: 250 cells/µL
